According to the supplement of paper PMC10307832:

Columns and labels:
Assay in all cases: relative viability (nuclei count vs DMSO), 5 days (fraction); higher = more cells survive
Vismodegib + Luminespib = compound: CS(=O)(=O)c1ccc(C(=O)Nc2ccc(Cl)c(-c3ccccn3)c2)c(Cl)c1 [Vismodegib] + CCNC(=O)c1noc(-c2cc(C(C)C)c(O)cc2O)c1-c1ccc(CN2CCOCC2)cc1 [Luminespib] (partner 0.01 µM)
Outline: (§1)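 One day after seeding in 1536-well plates, lung cancer cell lines were dosed by pin tool. Dosing was either single-drug or a fixed anchor-drug dose plus five library-drug doses (not always all listed) in √10 steps. After 5 days, nuclei were stained in one fix-and-stain step and counted on 4× images, and relative viability is the nuclei count of treated wells over that of vehicle wells, given as the median of duplicate plates.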

VE-821 + Phenformin = compound: CS(=O)(=O)c1ccc(-c2cnc(N)c(C(=O)Nc3ccccc3)n2)cc1 [VE-821] + N=C(N)NC(=N)NCCc1ccccc1 [Phenformin] (partner 250 µM)
Outline: as §1

Vismodegib + Trametinib = compound: CS(=O)(=O)c1ccc(C(=O)Nc2ccc(Cl)c(-c3ccccn3)c2)c(Cl)c1 [Vismodegib] + CC(=O)Nc1cccc(-n2c(=O)n(C3CC3)c(=O)c3c(Nc4ccc(I)cc4F)n(C)c(=O)c(C)c32)c1 [Trametinib] (partner 0.02 µM)
Outline: as §1

VE-821 + Navitoclax = compound: CS(=O)(=O)c1ccc(-c2cnc(N)c(C(=O)Nc3ccccc3)n2)cc1 [VE-821] + CC1(C)CCC(c2ccc(Cl)cc2)=C(CN2CCN(c3ccc(C(=O)NS(=O)(=O)c4ccc(N[C@H](CCN5CCOCC5)CSc5ccccc5)c(S(=O)(=O)C(F)(F)F)c4)cc3)CC2)C1 [Navitoclax] (partner 0.5 µM)
Outline: as §1

Row | Cell Line | relative viability (Vismodegib + Luminespib; first compound 0.08 µM) | relative viability (Vismodegib + Luminespib; first compound 0.253 µM) | relative viability (Vismodegib + Luminespib; first compound 0.8 µM) | relative viability (Vismodegib + Luminespib; first compound 2.53 µM) | relative viability (Vismodegib + Luminespib; first compound 8 µM) | relative viability (VE-821 + Phenformin; first compound 0.08 µM) | relative viability (VE-821 + Phenformin; first compound 0.253 µM) | relative viability (VE-821 + Phenformin; first compound 0.8 µM) | relative viability (VE-821 + Phenformin; first compound 2.53 µM) | relative viability (VE-821 + Phenformin; first compound 8 µM) | relative viability (Vismodegib + Trametinib; first compound 0.08 µM) | relative viability (Vismodegib + Trametinib; first compound 0.253 µM) | relative viability (Vismodegib + Trametinib; first compound 0.8 µM) | relative viability (Vismodegib + Trametinib; first compound 2.53 µM) | relative viability (Vismodegib + Trametinib; first compound 8 µM) | relative viability (VE-821 + Navitoclax; first compound 0.08 µM) | relative viability (VE-821 + Navitoclax; first compound 0.253 µM) | relative viability (VE-821 + Navitoclax; first compound 0.8 µM) | relative viability (VE-821 + Navitoclax; first compound 2.53 µM) | relative viability (VE-821 + Navitoclax; first compound 8 µM)
1 | NCI-H1993 | 0.799 | 0.865 | 0.747 | 0.814 | 0.796 | 0.457 | 0.439 | 0.527 | 0.482 | 0.524 | 0.508 | 0.607 | 0.549 | 0.438 | 0.492 | 0.787 | 0.747 | 0.772 | 0.797 | 0.694
2 | NCI-H1755 | 0.403 | 0.327 | 0.39 | 0.366 | 0.461 | 0.632 | 0.601 | 0.546 | 0.615 | 0.527 | 0.82 | 0.765 | 0.78 | 0.709 | 0.834 | 1.03 | 0.992 | 0.732 | 0.928 | 0.83
3 | SK-LU-1 | 0.206 | 0.201 | 0.22 | 0.216 | 0.223 | 0.675 | 0.528 | 0.497 | 0.383 | 0.216 | 0.441 | 0.473 | 0.54 | 0.441 | 0.444 | 0.781 | 0.871 | 0.744 | 0.366 | 0.247
4 | NCI-H1793 |  | 0.214 | 0.189 | 0.482 | 0.19 | 0.437 | 0.3 | 0.325 | 0.49 | 0.239 |  | 0.366 | 0.479 | 0.409 | 0.413 | 0.693 | 0.507 | 0.251 | 0.449 | 0.314
5 | ChaGo-K-1 | 0.565 | 0.622 | 0.598 | 0.525 | 0.516 | 0.454 | 0.459 | 0.536 | 0.496 | 0.427 | 0.849 | 0.904 | 0.919 | 0.781 | 0.796 | 0.929 | 1.06 | 1.22 | 1.03 | 0.594
6 | LCLC-97TM1 | 0.699 | 0.725 | 0.746 | 0.76 | 0.826 | 0.413 | 0.454 | 0.426 | 0.457 | 0.435 | 0.207 | 0.166 | 0.205 | 0.173 | 0.208 | 0.58 | 0.546 | 0.418 | 0.494 | 0.43
7 | NCI-H1944 | 0.729 | 0.716 | 0.782 | 0.758 | 0.83 | 0.235 | 0.2 | 0.172 | 0.238 | 0.157 | 0.386 | 0.395 | 0.425 |  | 0.399 | 1.16 | 0.997 | 0.92 | 1.1 | 0.643
8 | SW 1573 |  | 0.216 | 0.174 | 0.215 | 0.207 | 0.405 | 0.293 | 0.358 | 0.456 | 0.162 | 0.571 | 0.522 | 0.609 | 0.548 | 0.552 | 1.12 | 0.992 | 1.03 | 0.796 | 1.1
